Data published in ChEMBL document CHEMBL1155022, “Aerucyclamides A and B: isolation and synthesis of toxic ribosomal heterocyclic peptides from the cyanobacterium Microcystis aeruginosa PCC 7806” (J Nat Prod, 2008).

Test: Acute grazer toxicity against Thamnocephalus platyurus after 24 hrs
Assay type: organism-based
Conditions: in vivo

## CC[C@H](C)[C@@H]1NC(=O)[C@H]2CSC(=N2)[C@@H]([C@@H](C)CC)NC(=O)c2csc(n2)CNC(=O)[C@H]2N=C1O[C@@H]2C [AERUCYCLAMIDE A]
  LC50 at 24 h: 30.5 µM

## CC[C@H](C)[C@@H]1NC(=O)c2csc(n2)[C@@H]([C@@H](C)CC)NC(=O)c2csc(n2)CNC(=O)[C@H]2N=C1O[C@@H]2C [AERUCYCLAMIDE B]
  LC50 at 24 h: 33.8 µM
